# ChEMBL document CHEMBL4831552, “Novel Substituted Piperazine Amide Compounds as Indoleamine-2,3-dioxygenase (IDO) Inhibitors” (ACS Med Chem Lett, 2021)
# pIC50: −log10 of the molar value.
# Target: Indoleamine 2,3-dioxygenase 1 (Homo sapiens, UniProt P14902)
# Test: Inhibition of IDO1 in IFN-gamma stimulated human HeLa cells incubated for 48 hrs by fluorescence microplate reader assay
# Chain of Indoleamine 2,3-dioxygenase 1 (P14902 whole entry): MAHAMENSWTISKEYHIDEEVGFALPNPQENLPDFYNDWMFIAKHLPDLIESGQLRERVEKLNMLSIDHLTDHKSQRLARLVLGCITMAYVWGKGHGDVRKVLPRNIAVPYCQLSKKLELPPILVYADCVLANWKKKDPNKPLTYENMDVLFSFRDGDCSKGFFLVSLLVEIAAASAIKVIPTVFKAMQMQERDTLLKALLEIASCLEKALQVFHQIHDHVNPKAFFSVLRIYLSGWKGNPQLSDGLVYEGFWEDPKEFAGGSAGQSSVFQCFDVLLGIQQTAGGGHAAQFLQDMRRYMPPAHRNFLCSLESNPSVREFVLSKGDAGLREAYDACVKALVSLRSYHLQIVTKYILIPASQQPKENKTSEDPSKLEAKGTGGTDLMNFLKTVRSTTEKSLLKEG
smiles,measurement,value
CC(=O)NC1CCN(C(=O)c2nn(CC(=O)N3CCN(c4cccc(C)c4Cl)CC3)c3c2C2CCCCC2C3)CC1 (configuration not stated),pIC50,9.23
Cc1cccc(N2CCN(C(=O)Cn3nc(C(=O)N4CCC5(CO)CC4C5)c4c3C[C@H]3C[C@@H]43)CC2)c1C,pIC50,> 9.29
